Experimental findings from patent publication US20230414657A1, “Novel compositions for neutralizing toxic effects of hydrogen peroxide in living cells or tissues” (Dzala LLC, priority 2020, published 2023) are described below.

Series [1] relates to C. elegans. Briefly: Peroxide treatment of mutant, RNAi or unstressed worms: MMP, OCR and growth read together. It is filed as in vivo. The settings on record: for Restoration of MMP, OCR or growth rate: H2O2, RNAi against mel-32 or gcst-1; for MMP, OCR, growth rate: H2O2, worms fed with empty vector RNAi bacteria; for Response to glycine and L-serine: ghpr-1 and ghpr-1, ldh-1, gox-1 mutants fed with mel-32 RNAi bacteria; for Deleterious effects of peroxide (MMP, respiration, size): ghpr-1 single and ghpr-1, gox-1, ldh-1 triple mutants, H2O2 plus glycine or L-serine. The source says: C. elegans wild-type (N2) strain was received from Caenorhabditis Genetics Center, USA. Mutant strains were generated using the following primers. Idh-1: […] and […]; C31C9.2 (ghpr-1): […] and […]and F41E6.5 (gox-1): […]and[…]. […] Progeny of the rescued strains were genotyped for homozygous deletion with PCR primers for three generations. All mutants were outcrossed at least twice with the wild type to eliminate background mutations. Double and triple mutants were obtained by crossing single or double mutants and selecting the homozygous progeny by PCR.
For RNAi experiments in liquid, E. coli HT115 containing L4440 empty vector or the indicated cDNA fragment in L4440 was inoculated in 100 ml of LB containing 100 μg/ml ampicillin and incubated overnight at 37° C. in a shaking incubator at 250 rpm. To induce the production of dsRNA, a final concentration 0.8 mM IPTG was added to the collected bacterial pellet diluted 100-fold and incubated overnight at 25° C. in a shaking incubator at 250 rpm. Bacteria were then pelleted by centrifugation at 4000 rpm for 5 mins and resuspended in 200 μl S-medium containing 100 μg/ml ampicillin and 0.8 mM IPTG.
A population of synchronized L1 larvae was added to 30-ml glass tubes containing 2.5 ml of S-complete medium (liquid culture)^2 and NA22 or induced RNAi bacteria at an OD600 of 1.9. […] Worms were incubated at 15° C. and 150 rpm in a shaking incubator for 2-6 days, refreshing the medium every 2 days.
(§1) Mitochondrial staining was performed as described previously^3,4. Briefly, L1 worms were grown on plate or in liquid culture for 2-3 days at 15° C. Subsequently, they were pelleted in a 15-ml tube, rinsed twice with H2O and resuspended in 100 μl of M9. 5 μM MitoTracker Red CMXRos (Thermo Fisher Scientific, Germany) in DMSO was added to the worm suspension and incubated in this solution for 1.5 hr at room temperature in the dark. Next, the excess dye was washed off with M9 buffer and worms were incubated in 100 μl M9 for 30 min to eliminate the excess dye in the gut. Finally, worms were paralyzed with 0.5 mM Levamizol (Sigma-Aldrich), placed on slides covered with a thin layer of 2% agarose on top of which the coverslip (22×22 mm, Menzel-Glaser no. 1) was fixed using nail polish. We used a Zeiss LSM 700 inverted laser scanning confocal microscope and a Zeiss LCI Plan-Neofluar 63×/1.3 ImmCorr DIC M27 objective to image mitochondria (Zeiss, Germany). MitoTracker Red CMXRos was excited at 555 nm and the emission above 560 nm was acquired by the second PMT. Optical sections at 0.1×0.1×0.5 μm^3 x-y-z resolution were collected in a 4D hyperstack. Final images were adjusted for intensity and merged in Fiji. No non-linear adjustments were made.
Synchronized L1 worms were incubated at 15° C. on plates or in liquid culture and exposed to different conditions as indicated. Single worms were selected randomly from the plates or aliquots were taken from the liquid cultures and added to NGM plates for immediate visualization. 25 worms per treatment were measured at 24-48 hr intervals and all growth curves were done four times. Images were analyzed using FIJI (Image J) software, with length measurements derived by the sum-total of a number of segmented lines of known length, down the center of the worm as described previously^5.
(§2) Oxygen consumption of worms was measured with a Seahorse XFe96 system (Seahorse Bioscience, North Billerica, MA), as previously described^4. L3 larvae of the different strains were grown on plates or in liquid culture and supplemented for 2-4 days as described for each experiment. After removing bacteria and debris, approximately 100 worms were pipetted into each well of a 96-well Seahorse XF^e assay plate and OCR was measured until it stabilized. Then, 3 subsequent measurements were made at 6.5-min intervals. Finally, the exact number of worms in each well was counted and used for normalization.

Series [2] concerns C. elegans. Kind of series: NADPH and NADP+ quantification by LC-MS. The settings on record: 100 mM H2O2 plus 10 mM glycolate, 100 μM glycine or 500 μM L-serine, 3 days. It is filed as in vivo.
Method: To measure NADP^+ and NADPH from C. elegans, 10000-15000 L1 worms were exposed to each condition in duplicates for 3 days and then washed four times with H2O. […] 25 µM solutions of each nucleotide were treated in parallel as standards. Homogenization for 15 min at 4° C. and 300 g was carried out in a TissueLyser II (Qiagen) after adding ⅓ volume of 0.5 mm zirconium beads. The resulting mixture was centrifuged at 13,000 g and the supernatant transferred to a new tube.
LC-MS/MS analysis of the samples was performed on a high-performance liquid chromatography (HPLC) system (1200 Agilent) coupled online to G2-S QTOF (Waters). For normal phase chromatography Bridge Amide 3.5 ml (2.1×100 mm) column from Waters was used. The mobile phase composed of eluent A and eluent B (40% acetonitrile, 0.1 mM ammonium acetate and 0.01% NH40H) was applied with the following gradient program: Eluent B, from 0% to 100% within 18 min; 100% from 18 min to 21 min; 0% from 21 min to 26 min. The flow rate was set at 0.3 ml/min. The spray voltage was set at 3.0 kV and the source temperature was set at 120° C. Nitrogen was used as both cone gas (50 L/h) and desolvation gas (800 L/h), and argon as the collision gas. MS^E mode was used with Bridge Amide 3.5 µl (2.1×100 mm) column in ESI negative ionization polarity for the detection of the nucleosides. Mass chromatograms and mass spectral data were acquired and processed by MassLynx software (Waters). Three and four biological replicates were analyzed for each condition of mel-32 RNAi and EV, respectively.
Series [3] deals with C. elegans. Kind of series: Quantification of glutathione (GSH/GSSG-Glo). The settings on record: for GSH-to-GSSG ratio: plus supplement; for GSH/GSSG ratio: H2O2-treated worms plus 100 μM glycine or 500 μM L-serine. It is filed as in vivo. The protocol:
Sample preparation was performed as described previously with some modifications^6. From each condition 10,000 synchronized animals were harvested and washed 3 times with sterile water. […] To thoroughly lyse the worms, 5 cycles of freezing and thawing were performed in a water bath at 37° C., followed by a 1-min sonication. The samples were then centrifuged and the supernatant tested for protein estimation and GSH quantification. Total GSH, GSSG, and GSH/GSSG ratios were quantified using the GSH/GSSG-Glo assay kit (Promega) following the instructions of the manufacturer. Briefly, each sample was tested in triplicate in 96-well culture plates with total glutathione or GSSG lysis reagent, for total glutathione or GSSG measurement, respectively. The GSH probe, luciferin-NT, was converted to luciferin, which is coupled to a firefly luciferase. The plates were then read in an […] plate reader (Perkin Elmer, United States). The GSSG value was subtracted from the total glutathione to calculate GSH levels and GSH/GSSG ratio. Four biological replicates were analyzed for each condition.

Series [4] concerns C. elegans. Kind of series: Growth rate / worm size. The format is in vivo. As to conditions: for Growth: 100 mM H2O2 plus supplement (10 mM GA, 100 μM glycine or 500 μM L-serine). The protocol: Synchronized L1 worms were incubated at 15° C. on plates or in liquid culture and exposed to different conditions as indicated. Single worms were selected randomly from the plates or aliquots were taken from the liquid cultures and added to NGM plates for immediate visualization. 25 worms per treatment were measured at 24-48 hr intervals and all growth curves were done four times.

Series [5] concerns C. elegans. It is filed as in vivo. Here is the method: as §1, with “Subsequently, they were pelleted in a 15-ml tube, rinsed twice with H2O and resuspended in 100 μl of M9. 5 μM MitoTracker Red CMXRos (Thermo Fisher Scientific, Germany) in DMSO was added to the worm suspension and incubated in this solution for 1.5 hr at room temperature in the dark.” left out, “[…].” for “a 4D hyperstack.”

The subject of series [6] is C. elegans. The settings on record: in vivo, 3 days. The protocol: To quantify the uptake of glycolate, glycine and L-serine approximately 10000 synchronized L1 were incubated in liquid cultures as described above and grown for 3 days in the presence of […] of [1-^14C]-glycolate, [1-^14C]-glycine or L-[1-^14C]-serine. At this stage, worms were snap-frozen and stored at […]. Animals were lysed by freezing/thawing and extracted by using the Bligh and Dyer method^7. After phase separation, organic and aqueous fractions were recovered from the lower and upper phases, respectively. After drying and concentration, radioactivity was quantified using a scintillation counter and normalized for total number of worms.

Series [7] concerns C. elegans. Briefly: Oxygen consumption rate (OCR), Seahorse XFe96. It is filed as in vivo. Here is the method:
as §2, with “normalization. A small number of abnormal readings were also filtered out at this stage. On average, 7-8 wells (technical replicates) were used for each condition. Normalized OCR values were averaged for the last 3 measurements for each strain and condition. Four biological replicates were analyzed for each condition.” for “normalization.”

The subject of series [8] is C. elegans. Briefly: H2O2 accumulation in worms (Amplex Red). As to conditions: peroxide + GA with glutathione synthesis blocked by BSO. The format is in vivo. Here is the method:
Hydrogen peroxide was measured using the Amplex Red hydrogen peroxide/peroxidase assay kit (Molecular Probes, Eugene, OR), adapting the protocol to C. elegans. In the presence of hydrogen peroxide, Amplex Red is oxidized by horseradish peroxidase to form a red-fluorescent oxidation product whose fluorescence intensity can be measured.
To measure ROS production from C. elegans, 5000-7000 L1 worms were exposed to each condition for 2-3 days as indicated and then washed four times in 1 ml of the reaction buffer supplied with the kit. Volumes were adjusted to 700-1200 nematodes/50 μl and 50 μl was pipetted into a 96-well plate. A total of 50 μl of the Amplex Red reaction buffer was then added to the wells, and after 1 hr fluorescence was measured with a fluorescence microplate reader using excitation at 530±12.5 nm and fluorescence detection at 590±17.5 nm. Background fluorescence, determined for a no-H2O2 control reaction, was subtracted from each value. The significance of differences between conditions was determined by an unpaired fest. GraphPadPrism 8.0 was used for these calculations. Three biological replicates were carried out for each condition.

Setting [9] is: H2O2-treated animals defective in mel-32 or gcst-1 (RNAi).
Setting [10] is: H2O2-treated worms fed with empty vector.
[11] abbreviates: 100 mM H2O2 plus supplement (10 mM GA, 100 μM glycine or 500 μM L-serine).

Where two headings read alike, the source gives them in different places.

On to `N[C@@H](CO)C(=O)O` [L-serine], for which, in the series with C. elegans [1], the “Restoration of MMP, OCR or growth rate” value was “none of these three compounds were able to restore”; the “MMP, OCR, growth rate” value was “restored parameters”; the “Response to glycine and L-serine” value was “loss of response”; the “Deleterious effects of peroxide (MMP, respiration, size)” value is on record as “overcome the deleterious effects of peroxide”. For the same compound, the “Ratio of NADPH to NADP+” value in the series on C. elegans [2] was “much weaker, but still significant, increase”. Further, the GSH-to-GSSG ratio result in the series with C. elegans [3] (setting [9]) is listed as “strongly reduced”. Also, in the series on C. elegans [3] (setting [10]), the GSH-to-GSSG ratio entry is “maintained close to control levels”. For the same compound, in the series with C. elegans [3], the GSH/GSSG ratio entry is “able to restore”. Moreover, the Growth entry with C. elegans [4] was “able to restore”. Further, the “Mitochondrial membrane potential (MMP)” value in the series on C. elegans [5] (setting [11]) was “able to restore”. Further, the “Radioactivity in labelled animals (uptake) relative to [14C]GA” value in the series with C. elegans [6] came to 3 times higher. In addition, the “Respiration rate (OCR)” value in the series on C. elegans [7] (setting [11]) is reported as “able to restore”.
As to `CCCCS(=N)(=O)CCC(N)C(=O)O` [BSO, L-buthioninesulfoximine, reference compound], the Biosynthesis of glutathione result with C. elegans [3] (0.5 mM BSO, FIG. 2) is given as “inhibited”. In addition, in the series on C. elegans [3] (H2O2 + GA + BSO, control 107.5), the GSH/GSSG per worm was found to be 36. Further, in the series on C. elegans [3] (H2O2 + GA + inhibitor BSO), the Total glutathione is reported as 65 % of the control. Further, the Growth rate result in the series on C. elegans [4] (H2O2 + GA + BSO (0.5 mM)) is given as “prevented the GA-mediated improvement”. The “Mitochondrial membrane potential (MMP)” value with C. elegans [5] (H2O2 + GA + BSO (0.5 mM)) is given as “prevented the GA-mediated improvement”. Further, the “Accumulation of H2O2” value in the series on C. elegans [8] was “unchanged”. Further, the “Respiration rate (OCR)” value in the series on C. elegans [7] (H2O2 + GA + BSO (0.5 mM)) is “prevented the GA-mediated improvement”.
On to `NCC(=O)O` [glycine], for which, in the series on C. elegans [1], the “Restoration of MMP, OCR or growth rate” value is on record as “none of these three compounds were able to restore”; the “MMP, OCR, growth rate” value is on record as “restored parameters”; the “Response to glycine and L-serine” value is given as “loss of response”; the “Deleterious effects of peroxide (MMP, respiration, size)” value is given as “overcome the deleterious effects of peroxide”. For the same compound, the “Ratio of NADPH to NADP+” value in the series on C. elegans [2] is recorded as “fully rescued”. Further, the GSH-to-GSSG ratio result with C. elegans [3] (setting [9]) is listed as “strongly reduced”. Besides, in the series with C. elegans [3] (setting [10]), the GSH-to-GSSG ratio result is listed as “maintained close to control levels”. Also, in the series with C. elegans [3], the GSH/GSSG ratio entry is listed as “able to restore”. For the same compound, the Growth entry with C. elegans [4] is on record as “able to restore”. Besides, the “Mitochondrial membrane potential (MMP)” value in the series with C. elegans [5] (setting [11]) was “able to restore”. Moreover, the “Respiration rate (OCR)” value with C. elegans [7] (setting [11]) is recorded as “able to restore”.
